According to patent publication US20220401439A1, “INTRANASAL PHARMACEUTICAL COMPOSITIONS OF CGRP INHIBITORS” (Biohaven Pharmaceutical Holding Company Ltd., priority 2019, published 2022):
Read-outs that look alike come from different tables or passages of the source.

Legend:
[1] = pH-solubility profile of drug substance; format: physicochemical; settings: pH = 8.2; mono-hydrochloride salt form
[2] = Phase 1 multiple ascending dose (MAD) study, intranasal, pharmacokinetics; design: species or system human; settings: in vivo
Protocol: A Phase 1, single-center, randomized, double-blind, placebo-controlled, sequential multiple ascending dose (MAD) study with 2 alternate dosing arms was conducted. […] The MAD portion of the study consists of 4 cohorts, with a maximum dose of 20 mg administered once daily for up to 14 days in 3 cohorts, and 20 mg administered twice daily for up to 8 days in the fourth cohort.
In addition to the 4 MAD cohorts, there were 2 alternate dosing cohorts, each consisting of 1 day dosing. The first alternate dosing cohort assessed the effect of 2 sequential administrations of 20 mg (20 mg spray [100 μL of 200 mg/mL] in alternate nostrils); with a 30 minute interval between administrations. A 2nd alternate dosing cohort assessed the effect of 2 sequential administrations of 20 mg (20 mg spray [100 μL of 200 mg/mL] in alternate nostrils); with a nose blow and 5 minute interval between administrations.
The PK data were collected from subjects in Cohorts 1 to 4.

[3] = human, inhaled or intranasal, 5 mg
[4] = human, inhaled or intranasal, 10 mg
[5] = human, inhaled or intranasal, 20 mg

Cc1cc(C[C@@H](NC(=O)N2CCC(c3cc4ccccc4[nH]c3=O)CC2)C(=O)N2CCN(C3CCN(C)CC3)CC2)cc2cn[nH]c12 [Zavegepant, (R)—N-(3-(7-methyl-1H-indazol-5-yl)-1-(4-(1-methylpiperidin-4-yl)piperazin-1-yl)-1-oxopropan-2-yl)-4-(2-oxo-1,2-dihydroquinolin-3-yl)piperidine-1-carboxamide]
pH-solubility profile [1]: 105 mg/mL at pH = 8.2
half-life ([2]; human, 20 mg): 3.69 to 4.93 h
Tmax ([2]; human, Tmax): ~30 min
AUC [2, 3]: 20.7 ng·h/mL
AUC0-24 (ng*h/mL) geometric mean [2, 3]: 24.95 ng·h/mL
AUC0-τ ss (ng*h/mL) geometric mean [2, 3]: 20.66 ng·h/mL
AUC(0-inf) [2, 3]: 22.4 ng·h/mL
Cl/F (L/h) Mean [2, 3]: 293.27 L/h
Tmax (h) Mean [2, 3]: 0.52 h
Vd/F [2, 3]: 1570 L
half-life [2, 3]: 3.69 h
AUC(0-t) ([2]; human, inhaled or intranasal, 5 mg, AUC0-24 (ng*h/mL) geometric mean): 24.9 ng·h/mL
AUC(0-t) ([2]; human, inhaled or intranasal, 5 mg, AUC0-t (ng*h/mL) geometric mean): 19 ng·h/mL
Tmax ([2]; human, inhaled or intranasal, 5 mg, Tmax (h) Mean): 31.2 min
AUC [2, 4]: 32.9 ng·h/mL
AUC0-24 (ng*h/mL) geometric mean [2, 4]: 29.61 ng·h/mL
AUC0-τ ss (ng*h/mL) geometric mean [2, 4]: 32.85 ng·h/mL
AUC(0-inf) [2, 4]: 33.9 ng·h/mL
Cl/F (L/h) Mean [2, 4]: 341.09 L/h
Tmax (h) Mean [2, 4]: 0.57 h
Vd/F [2, 4]: 1660 L
half-life [2, 4]: 3.84 h
AUC(0-t) ([2]; human, inhaled or intranasal, 10 mg, AUC0-24 (ng*h/mL) geometric mean): 29.6 ng·h/mL
AUC(0-t) ([2]; human, inhaled or intranasal, 10 mg, AUC0-t (ng*h/mL) geometric mean): 30.9 ng·h/mL
Tmax ([2]; human, inhaled or intranasal, 10 mg, Tmax (h) Mean): 26.4 min
AUC [2, 5]: 91 ng·h/mL
AUC0-24 (ng*h/mL) geometric mean [2, 5]: 80.09 ng·h/mL
AUC0-τ ss (ng*h/mL) geometric mean [2, 5]: 90.98 ng·h/mL
AUC(0-inf) [2, 5]: 92.4 ng·h/mL
Cl/F (L/h) Mean [2, 5]: 254.40 L/h
Tmax (h) Mean [2, 5]: 0.56 h
Vd/F [2, 5]: 1740 L
AUC(0-t) ([2]; human, inhaled or intranasal, 20 mg, AUC0-24 (ng*h/mL) geometric mean): 80.1 ng·h/mL
AUC(0-t) ([2]; human, inhaled or intranasal, 20 mg, AUC0-t (ng*h/mL) geometric mean): 87.9 ng·h/mL
Cmax ([2]; human, inhaled or intranasal, 20 mg, Cmax (ng/mL) geometric mean): 34.7 ng/mL
Tmax ([2]; human, inhaled or intranasal, 20 mg, Tmax (h) Mean): 34.2 min
half-life ([2]; human, inhaled or intranasal, 20 mg once daily intranasal (Cohort 3), Day 14, read-out: T1/2 el (h) Mean (converted)): 4.93 h
concentration at 0.5 h ([2]; human, 5 mg, Day 14, nominal time 0.500 h, read-out: Plasma Concentrations (ng/mL) Mean): 8.08 ng/mL
urine concentrations [2]: below the limit of quantitation
